In the assay the target is T1, Ba/F3 cell EGFR Exon20 ins NPH (Homo sapiens, UniProt P00533, INS773NPH).
T1 construct: expressed in transfected cells; host or cells: Ba/F3
Briefly: Ba/F3 cell proliferation suppression, EGFR Exon20 ins NPH. The format is cell-based. The settings on record: GI50 class; Ba/F3 cell line with NPH inserted at Exon20 of EGFR; 72 hours. On the procedure:
The following experiment was carried out to evaluate the suppression activity of the compounds according to the present invention against proliferation of Ba/F3 and lung cancer cells which express EGFR mutations.
Of the cancer cell lines expressing the EGFR gene, A549 was cultured after adding 10% FBS (HyClone) to DMEM (Invitrogen), and RPMI-1640 (Invitrogen) with 10% FBS was used for the other cancer cells. For the Ba/F3 cells, RPMI-1640 with 10% FBS and 5 ng/ml IL-3 (R&D Systems) was used. The transduced Ba/F3 cells were cultured by adding 1 ug/ml puromycin (Invitrogen) to the same medium.
24 hours before treatment with the compounds, 3000 to 5000 cells were distributed into each well of a white clear bottom 96 well plate (Corning). The compounds were diluted in dimethylsulfoxide (dilution ratio 3:1; 12 concentrations total) and injected 0.5 ul each for a final concentration of 0.3 nM to 50 um. As for measurement of live cells, 72 hours after treatment with the compounds, a CellTiter-Glo luminescent cell-viability reagent (Promega) was used to store the cells at room temperature for 10 minutes, followed by measurement of luminescence using a reader (SynergyNeo, Biotek). Each test was repeated three times.
The result was calculated as a cell growth ratio (%) compared to a control. The program GraphPad Prism version 5.0 was used to draw the graphs and calculate the GI50 values.
`C=CC(=O)Nc1cc(Nc2cc(N3OCC[C@@H]3Cc3ccccc3)ncn2)c(OC)cc1N1C[C@H]2C[C@@H]1CN2CC` [compound 949, N-(5-((6-((S)-3-benzylisoxazolidine-2-yl)pyrimidine-4-yl)amino)-2-((1R,4R)-5-ethyl-2,5-diazabicyclo [2.2.1]heptane-2-yl)-4-methoxyphenyl) acrylamide]: the “Ba/F3 (NPH) Activity” value is “A (GI50 < 50 nM)”.

Take `C=CC(=O)Nc1cc(Nc2cc(N3OCC[C@@H]3c3cccc(Cl)c3)ncn2)c(OC)cc1N1CCN(C)CC1` [compound 360, N-(5-((6-((R)-3-(3-chlorophenyl)isoxazolidine-2-yl)pyrimidine-4-yl)amino)-4-methoxy-2-(4-methylpiperazine-1-yl)phenyl)acrylamide]: the “Ba/F3 (NPH) Activity” value is recorded as “A (GI50 < 50 nM)”.

In the case of `C=CC(=O)Nc1cc(Nc2cc(N3OCC[C@@H]3Cc3cccc(N(C)C)c3)ncn2)c(OC)cc1N1CCC(N2CCN(C3CC3)CC2)CC1` [compound 1044, N-(2-(4-(4-cyclopropylpiperazine-1-yl)piperidine-1-yl)-5-((6-((S)-3-(3-(dimethylamino)benzyl)isoxazolidine-2-yl)pyrimidine-4-yl)amino)-4-methoxyphenyl) acrylamide], the “Ba/F3 (NPH) Activity” value is recorded as “B (50 nM ≤ GI50 < 500 nM)”.

As to `C=CC(=O)Nc1cc(Nc2cc(N3OCC[C@@H]3Cc3cccc(F)c3)ncn2)c(OC)cc1N1CCC(N2CCN(C3CC3)[C@@H](C)C2)CC1` [compound 993, N-(2-(4-((S)-4-cyclopropyl-3-methylpiperazine-1-yl)piperidine-1-yl)-5-((6-((S)-3-(3-fluorobenzyl)isoxazolidine-2-yl)pyrimidine-4-yl)amino)-4-methoxyphenyl) acrylamide], the “Ba/F3 (NPH) Activity” value is “A (GI50 < 50 nM)”.

Take `C=CC(=O)Nc1cc(Nc2cc(N3OCC[C@@H]3Cc3cccc(Cl)c3OC)ncn2)c(OC)cc1N1CCN(C2CC2)CC1` [compound 1053, N-(5-((6-((S)-3-(3-chloro-2-methoxybenzyl)isoxazolidine-2-yl)pyrimidine-4-yl)amino)-2-(4-cyclopropylpiperazine-1-yl)-4-methoxyphenyl) acrylamide]: the “Ba/F3 (NPH) Activity” value was “A (GI50 < 50 nM)”.

On to `C=CC(=O)Nc1cc(Nc2cc(N3OCC[C@@H]3c3ccc(C)nc3)ncn2)c(OC)cc1N1C[C@H]2C[C@@H]1CO2` [Example 224, N-(2-((1R,4R)-2-oxa-5-azabicyclo[2.2.1]heptane-5-yl)-4-methoxy-5-((6-((R)-3-(6-methylpyridine-3-yl)isoxazolidine-2-yl)pyrimidine-4-yl)amino)phenyl)acrylamide], for which the “Ba/F3 (NPH) Activity” value is on record as “C (500 nM ≤ GI50 < 5000 nM)”.

In the case of `C=CC(=O)Nc1cc(Nc2cc(N3OCC[C@H]3c3c(F)cccc3F)ncn2)c(OC)cc1N1CCN(C)CC1` [compound 307, N-(5-((6-((S)-3-(2,6-difluorophenyl)isoxazolidine-2-yl)pyrimidine-4-yl)amino)-4-methoxy-2-(4-methylpiperazine-1-yl)phenyl)acrylamide], the “Ba/F3 (NPH) Activity” value was “C (500 nM ≤ GI50 < 5000 nM)”.

`C=CC(=O)Nc1cc(Nc2cc(N3OCC[C@@H]3c3ccc(Cl)cc3)ncn2)c(OC)cc1N1CCC(N2CCN(CC)CC2)CC1` [Example 254, N-(5-((6-((R)-3-(4-chlorophenyl)isoxazolidine-2-yl)pyrimidine-4-yl)amino)-2-(4-(4-ethylpiperazine-1-yl)piperidine-1-yl)-4-methoxyphenyl) acrylamide]: the “Ba/F3 (NPH) Activity” value is on record as “A (GI50 < 50 nM)”.

For the compound `C=CC(=O)Nc1cc(Nc2cc(N3OCC[C@@H]3c3ccc(F)cc3F)ncn2)c(OC)cc1N(C)CCOC` [compound 347, N-(5-((6-((R)-3-(2,4-difluorophenyl)isoxazolidine-2-yl)pyrimidine-4-yl)amino)-4-methoxy-2-((2-methoxyethyl)(methyl)amino)phenyl) acrylamide], the “Ba/F3 (NPH) Activity” value was “A (GI50 < 50 nM)”.

Regarding `C=CC(=O)Nc1cc(Nc2cc(N3OCC[C@@H]3Cc3cccc(F)c3C)ncn2)c(OC)cc1N1CCN(C2CC2)CC1` [compound 1038, N-(2-(4-cyclopropylpiperazine-1-yl)-5-((6-((S)-3-(3-fluoro-2-methylbenzyl)isoxazolidine-2-yl)pyrimidine-4-yl)amino)-4-methoxyphenyl) acrylamide], the “Ba/F3 (NPH) Activity” value was “A (GI50 < 50 nM)”.

On to `C=CC(=O)Nc1cc(Nc2cc(N3OCC[C@@H]3c3cccc(F)c3F)ncn2)c(OC)cc1N1CCN(CC)CC1` [compound 297, N-(5-((6-((R)-3-(2,3-difluorophenyl)isoxazolidine-2-yl)pyrimidine-4-yl)amino)-2-(4-ethylpiperazine-1-yl)-4-methoxyphenyl) acrylamide], for which the “Ba/F3 (NPH) Activity” value is on record as “A (GI50 < 50 nM)”.

On to `C=CC(=O)Nc1cc(Nc2cc(N3OCC[C@@H]3c3cccc(C(F)(F)F)c3)ncn2)c(OC)cc1N1CCN(C)CC1` [compound 450, N-(4-methoxy-2-(4-methylpiperazine-1-yl)-5-((6-((R)-3-(3-(trifluoromethyl)phenyl)isoxazolidine-2-yl)pyrimidine-4-yl)amino)phenyl)acrylamide], for which the “Ba/F3 (NPH) Activity” value is “A (GI50 < 50 nM)”.

For `C=CC(=O)Nc1cc(Nc2cc(N3OCC[C@@H]3c3cccc(C)c3F)ncn2)c(OC)cc1N1CCN(C2COC2)CC1` [compound 908, N-(5-((6-((R)-3-(2-fluoro-3-methylphenyl)isoxazolidine-2-yl)pyrimidine-4-yl)amino)-4-methoxy-2-(4-(oxetane-3-yl)piperazine-1-yl)phenyl) acrylamide], the “Ba/F3 (NPH) Activity” value was “A (GI50 < 50 nM)”.

With `C=CC(=O)Nc1cc(Nc2cc(N3OCC[C@@H]3Cc3ccc(C(F)(F)F)cc3)ncn2)c(OC)cc1N1CCN(C2CC2)CC1` [compound 1049, N-(2-(4-cyclopropylpiperazine-1-yl)-4-methoxy-5-((6-((S)-3-(4-(trifluoromethyl)benzyl)isoxazolidine-2-yl)pyrimidine-4-yl)amino)phenyl) acrylamide], the “Ba/F3 (NPH) Activity” value is recorded as “C (500 nM ≤ GI50 < 5000 nM)”.

Consider `C=CC(=O)Nc1cc(Nc2cc(N3OCC[C@@H]3c3ccc(F)c(F)c3F)ncn2)c(OC)cc1N1CCC(N(C)C)CC1` [compound 573, N-(2-(4-(dimethylamino)piperidine-1-yl)-4-methoxy-5-((6-((R)-3-(2,3,4-trifluorophenyl)isoxazolidine-2-yl)pyrimidine-4-yl)amino)phenyl)acrylamide], for which the “Ba/F3 (NPH) Activity” value is “A (GI50 < 50 nM)”.

Regarding `C=CCN1CCN(C2CCN(c3cc(OC)c(Nc4cc(N5OCC[C@@H]5c5ccc(F)c(F)c5)ncn4)cc3NC(=O)C=C)CC2)CC1` [Example 212, N-(2-(4-(4-allylpiperazine-1-yl)piperidine-1-yl)-5-((6-((R)-3-(3,4-difluorophenyl)isoxazolidine-2-yl)pyrimidine-4-yl)amino)-4-methoxyphenyl) acrylamide], the “Ba/F3 (NPH) Activity” value is listed as “A (GI50 < 50 nM)”.

`C=CC(=O)Nc1cc(Nc2cc(N3OCC[C@@H]3c3ccc(Cl)c(F)c3)ncn2)c(OC)cc1N1C[C@@H]2C[C@H]1CO2` [compound 862, N-(2-((1S,4S)-2-oxa-5-azabicyclo [2.2.1]heptane-5-yl)-5-((6-((R)-3-(4-chloro-3-fluorophenyl)isoxazolidine-2-yl)pyrimidine-4-yl)amino)-4-methoxyphenyl) acrylamide]: the “Ba/F3 (NPH) Activity” value is “A (GI50 < 50 nM)”.

`C=CC(=O)Nc1cc(Nc2cc(N3OCC[C@@H]3c3cccc(Cl)c3Cl)ncn2)c(OC)cc1N1CC[C@@H](N(C)C)C1` [compound 526, N-(5-((6-((R)-3-(2,3-dichlorophenyl)isoxazolidine-2-yl)pyrimidine-4-yl)amino)-2-((R)-3-(dimethylamino)pyrolidine-1-yl)-4-methoxyphenyl) acrylamide]: the “Ba/F3 (NPH) Activity” value is given as “A (GI50 < 50 nM)”.

Regarding `C=CC(=O)Nc1cc(Nc2cc(N3OCC[C@@H]3c3ccc(F)c(Cl)c3F)ncn2)c(OC)cc1N1CCC(N2C[C@@H]3C[C@H]2CO3)CC1` [compound 637, N-(2-(4-((1S,4S)-2-oxa-5-azabicyclo[2.2.1]heptane-5-yl)piperidine-1-yl)-5-((6-((R)-3-(3-chloro-2,4-difluorophenyl)isoxazolidine-2-yl)pyrimidine-4-yl)amino)-4-methoxyphenyl) acrylamide], the “Ba/F3 (NPH) Activity” value is on record as “A (GI50 < 50 nM)”.

For `C=CC(=O)Nc1cc(Nc2cc(N3OCC[C@@H]3c3cccc(OC)c3)ncn2)c(OC)cc1N1CCC(N2C[C@@H]3C[C@H]2CO3)CC1` [Example 27, N-(2-(4-((1S,4S)-2-oxa-5-azabicyclo[2.2.1]heptane-5-yl)piperidine-1-yl)-4-methoxy-5-((6-((R)-3-(3-methoxyphenyl)isoxazolidine-2-yl)pyrimidine-4-yl)amino)phenyl) acrylamide], the “Ba/F3 (NPH) Activity” value is on record as “A (GI50 < 50 nM)”.

`C=CC(=O)Nc1cc(Nc2cc(N3OCC[C@@H]3c3cc(F)ccc3F)ncn2)c(OC)cc1N1CCN(CC)CC1` [compound 849, N-(5-((6-((R)-3-(2,5-difluorophenyl)isoxazolidine-2-yl)pyrimidine-4-yl)amino)-2-(4-ethylpiperazine-1-yl)-4-methoxyphenyl) acrylamide]: the “Ba/F3 (NPH) Activity” value was “A (GI50 < 50 nM)”.

As for `C=CC(=O)Nc1cc(Nc2cc(N3OCC[C@H]3c3cc(F)cc(F)c3)ncn2)c(OC)cc1N1CCC(N2CCN(C3CC3)CC2)CC1` [Example 118], the “Ba/F3 (NPH) Activity” value was “C (500 nM ≤ GI50 < 5000 nM)”.

The record behind these values is US12157730B2, “Heteroaryl derivative, method for producing same, and pharmaceutical composition comprising same as effective component” (VORONOI INC., priority 2019, dated 2024).
